In the test the target is T1, human P2X4 (Homo sapiens, UniProt Q99571).
T1 sequence (Q99571 1-388): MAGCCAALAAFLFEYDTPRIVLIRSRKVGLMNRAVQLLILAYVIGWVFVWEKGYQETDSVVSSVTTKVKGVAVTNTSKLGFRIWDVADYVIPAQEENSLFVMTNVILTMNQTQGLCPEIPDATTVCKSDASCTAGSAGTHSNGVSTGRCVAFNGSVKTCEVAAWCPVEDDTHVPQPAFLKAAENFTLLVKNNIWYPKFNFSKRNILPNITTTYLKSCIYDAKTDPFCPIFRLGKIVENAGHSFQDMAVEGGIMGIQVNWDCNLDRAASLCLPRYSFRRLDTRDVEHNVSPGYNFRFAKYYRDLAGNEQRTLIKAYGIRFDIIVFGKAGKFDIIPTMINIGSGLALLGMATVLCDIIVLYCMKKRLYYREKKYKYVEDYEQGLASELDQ
Put plainly: Human P2X4 HEK Cell FLIPR Assay. It is filed as cell-based. Conditions: agonist Bz-ATP at EC80; for Emax: HEK293, HEK293 cells, percentage of maximal inhibition, read-out: Human P2X4 HEK Cells (FLIPR Assay) avg Efficacy [%]; for IC50: HEK293 cells, individual values listed where some fall outside detection range. A digest of the protocol:
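Calcium flux read by FLIPR for 120 sec after Bz-ATP challenge at EC80 (established each assay day), following 30 min room-temperature compound preincubation in dye-loaded stable human P2X4 HEK293 cells. Peak RFU over basal normalized to agonist control; IC50, maximal inhibition and Hill coefficient from triplicate means.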

One may read the IC50 as the point on the concentration scale where inhibition reaches its midpoint.

As for `COc1ccc(CC(=O)Nc2ccc(-n3cc(C(F)(F)F)cn3)c(S(N)(=O)=O)c2)c(Cl)c1` [Example 135, 2-(2-Chloro-4-methoxyphenyl)-N-{3-sulfamoyl-4-[4-(trifluoromethyl)-1H-pyrazol-1-yl]phenyl}acetamide], the Emax amounted to 90% and the IC50 stood at 73 nM.

For `NS(=O)(=O)c1cc(NC(=O)Cc2cc(Cl)ccc2Cl)ccc1-n1cc(C(F)(F)F)cn1` [Example 136, 2-(2,5-Dichlorophenyl)-N-{3-sulfamoyl-4-[4-(trifluoromethyl)-1H-pyrazol-1-yl]phenyl}-acetamide], the Emax turned out to be 84% and the IC50 is 211 nM.

In the case of `CC(C)c1ccccc1CC(=O)Nc1ccc(-n2cc(C(F)(F)F)cn2)c(S(N)(=O)=O)c1` [Example 137, 2-(2-Isopropylphenyl)-N-{3-sulfamoyl-4-[4-(trifluoromethyl)-1H-pyrazol-1-yl]phenyl}-acetamide], the Emax is 89% and the IC50 came to 1170 nM.

With `COc1ccc(Cl)c(CC(=O)Nc2ccc(-n3cc(C(F)(F)F)cn3)c(S(N)(=O)=O)c2)c1` [Example 138, 2-(2-Chloro-5-methoxyphenyl)-N-{3-sulfamoyl-4-[4-(trifluoromethyl)-1H-pyrazol-1-yl]phenyl}acetamide], the Emax turned out to be 100% and the IC50 worked out at 238 nM.

Regarding `NS(=O)(=O)c1cc(NC(=O)Cc2cc(F)ccc2Cl)ccc1-n1cc(C(F)(F)F)cn1` [Example 139, 2-(2-Chloro-5-fluorophenyl)-N-{3-sulfamoyl-4-[4-(trifluoromethyl)-1H-pyrazol-1-yl]phenyl}acetamide], the Emax was found to be 100% and the IC50 amounted to 107 nM.

For the compound `NS(=O)(=O)c1cc(NC(=O)Cc2ccccc2C(F)(F)F)ccc1-n1cc(F)cn1` [Example 140, N-[4-(4-Fluoro-1H-pyrazol-1-yl)-3-sulfamoylphenyl]-2-[2-(trifluoromethyl)phenyl]-acetamide], the Emax was 92% and the IC50 is 77 nM.

Consider `Cc1cc(F)c(Br)cc1CC(=O)Nc1ccc(-n2cc(C(F)(F)F)cn2)c(S(N)(=O)=O)c1` [Example 141, 2-(5-Bromo-4-fluoro-2-methylphenyl)-N-{3-sulfamoyl-4-[4-(trifluoromethyl)-1H-pyrazol-1-yl]phenyl}acetamide], for which the Emax stood at 96% and the IC50 is 638 nM.

`COc1cccc(Cl)c1CC(=O)Nc1ccc(-n2cc(C(F)(F)F)cn2)c(S(N)(=O)=O)c1` [Example 142, 2-(2-Chloro-6-methoxyphenyl)-N-{3-sulfamoyl-4-[4-(trifluoromethyl)-1H-pyrazol-1-yl]phenyl}acetamide]: the Emax came out at 78% and the IC50 came out at 116 nM.

For `NS(=O)(=O)c1cc(NC(=O)Cc2c(F)cc(F)cc2Cl)ccc1-n1cc(C(F)(F)F)cn1` [Example 143, 2-(2-Chloro-4,6-difluorophenyl)-N-{3-sulfamoyl-4-[4-(trifluoromethyl)-1H-pyrazol-1-yl]phenyl}acetamide], the Emax is 84% and the IC50 was determined as 247 nM.

Take `NS(=O)(=O)c1cc(NC(=O)Cc2cccc(F)c2)ccc1-n1cc(F)cn1` [Example 144, 2-(3-Fluorophenyl)-N-[4-(4-fluoro-1H-pyrazol-1-yl)-3-sulfamoylphenyl]acetamide]: the Emax stood at 62% and the IC50 was determined as 292 nM.

As to `NS(=O)(=O)c1cc(NC(=O)Cc2ccc(F)c(F)c2)ccc1-n1cc(F)cn1` [Example 145, 2-(3,4-Difluorophenyl)-N-[4-(4-fluoro-1H-pyrazol-1-yl)-3-sulfamoylphenyl]acetamide], the Emax came to 49% and the IC50 is > 25000 nM.

For the compound `NS(=O)(=O)c1cc(NC(=O)Cc2cc(F)cc(F)c2)ccc1-n1cc(F)cn1` [Example 146, 2-(3,5-Difluorophenyl)-N-[4-(4-fluoro-1H-pyrazol-1-yl)-3-sulfamoylphenyl]acetamide], the Emax is 66% and the IC50 stood at 364 nM.

`NS(=O)(=O)c1cc(NC(=O)Cc2ccccc2O)ccc1-n1cc(F)cn1` [Example 147, N-[4-(4-Fluoro-1H-pyrazol-1-yl)-3-sulfamoylphenyl]-2-(2-hydroxyphenyl)acetamide]: the Emax worked out at 100% and the IC50 is 80 nM.

For `NS(=O)(=O)c1cc(NC(=O)Cc2cccc(Cl)c2)ccc1-n1cc(F)cn1` [Example 148, 2-(3-Chlorophenyl)-N-[4-(4-fluoro-1H-pyrazol-1-yl)-3-sulfamoylphenyl]acetamide], the Emax worked out at 63% and the IC50 is 132 nM.

Turning to `NS(=O)(=O)c1cc(NC(=O)Cc2ccc(F)cc2)ccc1-n1cc(F)cn1` [Example 149, 2-(4-Fluorophenyl)-N-[4-(4-fluoro-1H-pyrazol-1-yl)-3-sulfamoylphenyl]acetamide], the Emax is 56% and the IC50 came to 211 nM.

As to `NS(=O)(=O)c1cc(NC(=O)Cc2ccc(O)cc2)ccc1-n1cc(F)cn1` [Example 150, N-[4-(4-Fluoro-1H-pyrazol-1-yl)-3-sulfamoylphenyl]-2-(4-hydroxyphenyl)acetamide], the Emax was determined as 80% and the IC50 was 433 nM.

Turning to `Cc1cccc(CC(=O)Nc2ccc(-n3cc(F)cn3)c(S(N)(=O)=O)c2)c1` [Example 151, N-[4-(4-Fluoro-1H-pyrazol-1-yl)-3-sulfamoylphenyl]-2-(3-methylphenyl)acetamide], the Emax stood at 83% and the IC50 was 81 nM.

As for `Cc1ccc(CC(=O)Nc2ccc(-n3cc(F)cn3)c(S(N)(=O)=O)c2)cc1` [Example 152, N-[4-(4-Fluoro-1H-pyrazol-1-yl)-3-sulfamoylphenyl]-2-(4-methylphenyl)acetamide], the Emax stood at 79% and the IC50 was 105 nM.

On to `COc1ccc(CC(=O)Nc2ccc(-n3cc(F)cn3)c(S(N)(=O)=O)c2)cc1` [Example 153, N-[4-(4-Fluoro-1H-pyrazol-1-yl)-3-sulfamoylphenyl]-2-(4-methoxyphenyl)acetamide], for which the Emax is 74% and the IC50 amounted to 182 nM.

Take `Cc1ccccc1CC(=O)Nc1ccc(-n2cc(F)cn2)c(S(N)(=O)=O)c1` [Example 154, N-[4-(4-Fluoro-1H-pyrazol-1-yl)-3-sulfamoylphenyl]-2-(2-methylphenyl)acetamide]: the Emax amounted to 84% and the IC50 is 30 nM.

With `NS(=O)(=O)c1cc(NC(=O)Cc2cccc(F)c2F)ccc1-n1cc(F)cn1` [Example 155, 2-(2,3-Difluorophenyl)-N-[4-(4-fluoro-1H-pyrazol-1-yl)-3-sulfamoylphenyl]acetamide], the Emax was 86% and the IC50 worked out at 108 nM.

As to `CCOc1ccccc1CC(=O)Nc1ccc(-n2cc(F)cn2)c(S(N)(=O)=O)c1` [Example 156, 2-(2-Ethoxyphenyl)-N-[4-(4-fluoro-1H-pyrazol-1-yl)-3-sulfamoylphenyl]acetamide], the Emax was found to be 94% and the IC50 is 243 nM.

For `NS(=O)(=O)c1cc(NC(=O)Cc2ccccc2OC(F)F)ccc1-n1cc(F)cn1` [Example 157, 2-[2-(Difluoromethoxy)phenyl]-N-[4-(4-fluoro-1H-pyrazol-1-yl)-3-sulfamoylphenyl]-acetamide], the Emax is 90% and the IC50 came to 153 nM.

Values taken from US11524938B2, “Aromatic sulfonamide derivatives” (Bayer Pharma Aktiengesellschaft, priority 2016, dated 2022).
